Paper PMC9578396, “Intrinsic Antibacterial Activity of Xeruborbactam In Vitro: Assessing Spectrum and Mode of Action” (Antimicrobial Agents and Chemotherapy, 2022)
Read-outs that look alike come from different tables or passages of the source.

How the values were obtained:
[1] = tested on: Acinetobacter baumannii; assay: Broth microdilution MIC (CLSI), Acinetobacter baumannii; assay type: cell-based; conditions: Acinetobacter baumannii, read-out: MIC
Summary of the method: (§1)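 Test organisms were KPC-producing clinical isolates (some enriched for porin mutations), matched isolates that lost KPC plasmids, and engineered porin/efflux mutant strains. Susceptibility was measured by broth microdilution following CLSI methods, using panels prepared in-house.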

[2] = tested on: Pseudomonas aeruginosa; assay: Broth microdilution MIC (CLSI), Pseudomonas aeruginosa; assay type: cell-based; conditions: Pseudomonas aeruginosa, strain PAM1154 (Fig. 6); read-out: MIC
Summary of the method: as §1

[3] = tested on: Klebsiella pneumoniae; assay: microbe, parasite or virus in culture; assay type: cell-based
Summary of the method: as §1

[4] = tested on: A. baumannii strain ATCC 17978; assay: Fluorescence microscopy, cellular morphology; assay type: cell-based, Acinetobacter baumannii; conditions: xeruborbactam, meropenem 1× and 2× MIC; aztreonam 2× MIC; amdinocillin 2 μg/mL
Protocol: (§2) Single colonies of K. pneumoniae strain KPM1026a, A. baumannii strain ATCC 17978, and P. aeruginosa strain PAM1154 were picked from LB agar plates, inoculated in cation-adjusted Mueller-Hinton broth (CA-MHB), and incubated overnight at 30°C with rolling. Overnight cultures were diluted into fresh CA-MHB and incubated at 30°C, with rolling, until they reached an OD600 of ≈0.12 to 0.15 (equivalent to ~2 × 10^8 CFU/mL). Samples were then treated with compounds and incubated at 30°C, with rolling. After 1 or 2 h of treatment, cells were collected and stained with a dye mix containing FM4-64 (1 μg/mL), DAPI (4′,6-diamidino-2-phenylindole) (2 μg/mL), and SYTOX green (0.5 μM) (Molecular Probes, Invitrogen, or Thermo Fisher Scientific). Cells were transferred onto an agarose pad containing 1.2% agarose and 20% LB medium for microscopy. Microscopy was performed as previously described ([34]).

[5] = tested on: K. pneumoniae strain KPM1026a; assay: Fluorescence microscopy, cellular morphology; assay type: cell-based, Klebsiella pneumoniae; conditions: treated at 1× and 2× MIC, 1 to 2 h, 30°C
Protocol: as §2

Q: With `CC1(C)S[C@@H]2[C@H](/N=C/N3CCCCCC3)C(=O)N2[C@H]1C(=O)O` [Mecillinam] as the molecule, how does the MIC ([1]; ATCC17978, strain ATCC 17978 (Fig. 6)) read?
A: 128 µg/mL

Q: And the MIC ([1]; ATCC17978, strain ATCC 17978)?
A: > 256 µg/mL

Q: What about the MIC [2] of the same molecule?
A: 128 µg/mL

Q: And the MIC ([3]; KPM1026a (no beta-lactamase), xeruborbactam 0 µg/ml)?
A: 0.25 µg/mL

Q: And the MIC ([3]; KPM1026a, xeruborbactam 2 µg/ml)?
A: 0.25 µg/mL

Q: And the MIC ([3]; KPM1026a, xeruborbactam 4 µg/ml)?
A: 0.125 µg/mL

Q: And the MIC ([3]; KPM1026a, xeruborbactam 8 µg/ml)?
A: 0.06 µg/mL

Q: And the MIC ([3]; Klebsiella pneumoniae, KPM1026a, alone, read-out: MIC)?
A: 0.25 µg/mL

Q: What about the MIC ([3]; Klebsiella pneumoniae, KPM1026a, parent, read-out: MIC) of the same molecule?
A: 0.25 µg/mL

Q: And the MIC ([3]; Klebsiella pneumoniae, KPM3532 (TolQ::M189K), alone)?
A: > 64 µg/mL

Q: What about the MIC ([3]; Klebsiella pneumoniae, KPM3532, TolQ::M189K) of the same molecule?
A: > 64 µg/mL

Q: And the MIC ([3]; Klebsiella pneumoniae, KPM3534 (TolQ::S31F), alone)?
A: > 64 µg/mL

Q: What about the MIC ([3]; Klebsiella pneumoniae, KPM3534, TolQ::S31F) of the same molecule?
A: > 64 µg/mL

Q: And the MIC ([3]; Klebsiella pneumoniae, KPM4235, TolQ::IP(183–1844)PR)?
A: > 64 µg/mL

Q: What about the MIC ([3]; Klebsiella pneumoniae, KPM4236, TolQ::TAA at aa 103) of the same molecule?
A: > 64 µg/mL

Q: What about the MIC ([3]; Klebsiella pneumoniae, KPM4238, TolQ::S25F) of the same molecule?
A: > 64 µg/mL

Q: What about the MIC ([3]; Klebsiella pneumoniae, KPM4239, TolQ::S28F) of the same molecule?
A: > 64 µg/mL

Q: And the MIC ([3]; Klebsiella pneumoniae, KPM4240, TolQ::S25Y)?
A: > 64 µg/mL

Q: And the MIC ([3]; Klebsiella pneumoniae, strain KPM1026a measured at 30°C (Fig. 6), read-out: MIC)?
A: 128 µg/mL

Q: And the cellular morphology [4]?
A: bacterial cell rounding but not swelling

Q: What about the cellular morphology [5] of the same molecule?
A: cell rounding
